Laboratory results reported in patent US20220267271A1, “WNT ACTIVATORS AND METHODS OF USE” (MAYO FOUNDATION FOR MEDICAL EDUCATION AND RESEARCH, priority 2019, published 2022).

Columns and labels:
tau = experiment: Tau phosphorylation in N2a cells by Western blotting; format: cell-based; conditions: 0.8 and 1.6 μM, 24 h
Protocol: N2a cells were treated with 1011 at the indicated concentrations for 24 h. (A) the levels of β-catenin, tau and tau phosphorylation were examined by Western blotting. (B) the intensity of the tau phosphorylation bands were quantified and normalized to the corresponding signal for total tau. The results represented in the histograms are shown as the mean±SD and are the average of 3 independent experiments. *P<0.05, **P<0.01 versus corresponding control value.
Western blotting: Cells in 6-well plates were lysed in 0.5 ml of lysis buffer (phosphate-buffered saline containing 1% Triton X-100, 1× Proteinase inhibitor cocktail Complete, and 1 mM PMSF) at 4° C. for 15 min. Equal quantities of protein were subjected to SDS-PAGE under reducing conditions. Following transfer to immobilon-P transfer membrane, successive incubations with a primary antibody, and a horseradish peroxidase-conjugated secondary antibody or IRDye® 680RD goat anti-rabbit/mouse secondary antibodies were carried out for 60-120 min at room temperature. The immunoreactive proteins were then detected using the ECL system or the Odyssey infrared imaging system (LI-COR). Films showing immunoreactive bands were scanned by Hp Scanjet 5590.

Wnt/β-catenin signaling = Wnt/β-catenin signaling in human iPSC-derived neurons (Western blot, qPCR); format: cell-based
Protocol: Human iPSC-derived neurons were treated with 1015 (0.4 μM) for 48 h, and the mRNA levels of axin2 (B), neuroD1 (C) and SOX2 (D) were determined by qPCR. All the values are the average of three independent experiments with the SE values indicated by error bars. * P<0.05, ** P<0.01 verse corresponding control. (E) Human iPSC-derived neurons were treated with 1015 (0.4 μM) for 48 h, and the levels of phopspho-tau (p-tau) and total tau were determined by Western blotting with specific antibodies AT8 and HT7, respectively. This experiment is a representative of two such experiments performed with similar data.
NeuroD1, a proneural basic helix-loop-helix (bHLH) transcription factor, plays a critical role in CNS development, and is important for survival of neuronal progenitor cells. There is a TCF/LEF regulatory element in the Neurod1 promoter, and NeuroD1 is a specific target of Wnt/β-catenin signaling. […] In addition, 1015 also induces neural stem cell marker SOX2 expression in human iPSC-derived neurons ([…]). Importantly, 1015 suppresses tau phosphorylation in human iPSC-derived neurons (FIG. 16 at D).

PS19 mice = experiment: Efficacy study in PS19 mice (tauopathy model); format: in vivo; conditions: IP 15 mg/kg once daily, 8 weeks
Protocol: PS19 mice at 33 weeks of age were treated with 1015 (IP, 15 mg/kg) or vehicle [Kolliphor HS-physiological saline (20%:80%)] by a once daily dose schedule for 8 weeks (5 injections per week). (A) Body weight changes during the course of treatment were assessed. (B) The level of Wnt specific target neuroD1 in cortex was determined by qPCR. All the values are the average of from 5-7 mice with the SE values indicated by error bars.* P<0.05, * P<0.01 verse Non-Tg treated with vehicle or PS19 mice treated with vehicle.
(A) PS19 mice at 33 weeks of age were treated with 1015 (IP, 15 mg/kg) or vehicle [Kolliphor HS-physiological saline (20%:80%)] by a once daily dose schedule for 8 weeks (5 injections per week). The levels of tau phosphorylation (p-tau) and total tau in cortex were determined by Western blotting with p-tau antibody AT8, p-tau antibody AT180, and tau antibody HT7, respectively. (B) The intensities of p-tau bands were quantified and normalized to the corresponding signal for actin. The results represented in the histograms are shown as the mean±SE, n=5.
PS19 mice at 33 weeks of age were treated with 1015 (IP, 15 mg/kg) or vehicle [Kolliphor HS-physiological saline (20%:80%)] by a once daily dose schedule for 8 weeks (5 injections per week). (A-D) The levels of cytokines IL6, TNFa, TGF1b and IL1b in cortex were determined by qPCR. All the values are the average of from 5-7 mice with the SE values indicated by error bars. * P<0.05, * P<0.01, ** P<0.001.
1015 activates Wnt/β-catenin signaling and prevents body weight loss in PS19 mice: PS19 is a widely used tauopathy model which recapitulates many AD-related phenotypes. […] Therefore, the PS19 mouse model was used for efficacy studies. There was a noticeable drop in weight in all groups after initiation of daily dosing in each group, which is most likely a consequence of the sudden daily manipulation of the mice (FIG. 17 at A).

CC1CCCC(C)N1CCNC(=O)c1ccc(C(=O)Nc2ccccc2N)nc1 (stereo not drawn) [Compound 1011]
tau phosphorylation (tau): suppressed

Nc1ccccc1NC(=O)c1ccc(C(=O)NCC2CCN2C2CCCC2)cn1 (stereo not drawn) [Compound 1015]
NeuroD1 expression (mRNA) (Wnt/β-catenin signaling; 0.4 μM, 48 h): significantly enhances
Wnt specific target axin2 expression (mRNA) (Wnt/β-catenin signaling; 0.4 μM, 48 h): increases
neural stem cell marker SOX2 expression (mRNA) (Wnt/β-catenin signaling; 0.4 μM, 48 h): induces
Wnt co-receptor LRP6 level (Wnt/β-catenin signaling; 24 h): enhances
body weight loss (PS19 mice; 5 injections per week): significantly prevented
tau phosphorylation in cortex (PS19 mice; AT8 and AT180): significantly suppresses
neuroD1 expression in brain (PS19 mice; cortex, qPCR): restored, but not over induced
neuroinflammatory cytokine expression (IL6, TNFa, TGF1b, IL1b) (PS19 mice; cortex, qPCR): inhibited
